Reference: ChEMBL document CHEMBL1128307, “2-Aralkynyl and 2-heteroalkynyl derivatives of adenosine-5'-N-ethyluronamide as selective A2a adenosine receptor agonists” (J Med Chem, 1995)

Experiments:
[1] = Hydrophobicity index (k'') (RP-HPLC pH 7.5); type: ADME
Adenosine receptor A2a [2] = target: T1, Adenosine receptor A2a (Rattus norvegicus, UniProt P30543)
Adenosine receptor A2a [3] = target: T1, Adenosine receptor A2a; remark: listed apart in the source
Description: Functional activity against adenosine A2a receptor from rat aorta.

Adenosine receptor A1 [4] = target: T2, Adenosine receptor A1 (Rattus norvegicus, UniProt P25099)
T2 sequence (P25099 whole entry): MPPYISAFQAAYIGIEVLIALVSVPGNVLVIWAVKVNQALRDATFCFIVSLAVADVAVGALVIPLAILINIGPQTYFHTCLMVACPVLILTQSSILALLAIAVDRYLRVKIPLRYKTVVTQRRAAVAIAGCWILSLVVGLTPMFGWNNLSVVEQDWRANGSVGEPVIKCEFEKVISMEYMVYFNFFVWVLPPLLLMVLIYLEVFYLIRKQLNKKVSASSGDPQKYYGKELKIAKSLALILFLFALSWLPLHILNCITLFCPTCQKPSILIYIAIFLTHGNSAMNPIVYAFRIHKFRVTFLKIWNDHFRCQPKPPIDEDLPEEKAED
Description: Binding affinity against adenosine A1 receptor from rat brain using [3H]CHA as a radioligand.

Adenosine receptor A1 [5] = target: T2, Adenosine receptor A1; assay: Functional activity against adenosine A1 receptor from rat atria.
Adenosine receptor A2a [6] = target: T1, Adenosine receptor A2a; assay: Functional activity against A2a adenosine receptor from rat aorta.

T1 sequence (P30543 whole entry): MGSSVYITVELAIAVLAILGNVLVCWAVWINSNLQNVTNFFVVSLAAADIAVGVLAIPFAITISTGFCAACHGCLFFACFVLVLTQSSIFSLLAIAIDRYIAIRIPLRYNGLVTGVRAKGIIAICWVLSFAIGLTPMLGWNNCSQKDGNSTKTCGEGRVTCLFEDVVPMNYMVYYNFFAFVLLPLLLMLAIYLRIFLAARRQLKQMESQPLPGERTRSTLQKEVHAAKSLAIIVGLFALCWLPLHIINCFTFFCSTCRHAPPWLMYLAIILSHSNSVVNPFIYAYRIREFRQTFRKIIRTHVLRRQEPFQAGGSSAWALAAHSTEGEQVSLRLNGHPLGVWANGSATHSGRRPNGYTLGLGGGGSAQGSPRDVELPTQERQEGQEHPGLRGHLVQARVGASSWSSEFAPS

Row | k' [1] | Ki (Adenosine receptor A2a [2]) [nM] | EC50 (Adenosine receptor A2a [3]) [nM] | Ki (Adenosine receptor A1 [4]) [nM] | EC50 (Adenosine receptor A1 [5]) [µM] | EC50 (Adenosine receptor A2a [6]) [nM] | Structure (SMILES)
1 | 0.25 | 57.8 | 440 |  |  |  | C#Cc1nc(N)c2ncn([C@@H]3O[C@H](C(=O)NCC)[C@@H](O)[C@H]3O)c2n1
2 | 5.82 | 1.2 |  | 209 | 6.48 |  | CCNC(=O)[C@H]1O[C@@H](n2cnc3c(N)nc(C#CCCCc4ccccc4)nc32)[C@H](O)[C@@H]1O
3 | 2.04 | 120 | 1500 | 698 | > 10 |  | CCNC(=O)[C@H]1O[C@@H](n2cnc3c(N)nc(C#Cc4ccccc4)nc32)[C@H](O)[C@@H]1O
4 | 2.76 |  |  |  |  |  | OC[C@H]1O[C@@H](n2cnc3c(NC4CCCC4)nc(Cl)nc32)[C@H](O)[C@@H]1O
5 | 2.57 |  | 596 |  |  |  | CCCCC#Cc1nc(N)c2ncn([C@@H]3O[C@H](C(=O)NCC)[C@@H](O)[C@H]3O)c2n1
6 | 0.57 | 87 | > 10000 | 428 | > 10 |  | CCNC(=O)[C@H]1OC(n2cnc3c(N)nc(C#Cc4ccncc4)nc32)[C@H](O)[C@@H]1O (stereo not given in full)
7 | 1.02 | 6.3 | 110 | 1000 | > 10 |  | CCNC(=O)[C@H]1OC(n2cnc3c(N)nc(C#Cc4ccc(C=O)cc4)nc32)[C@H](O)[C@@H]1O (stereo not given in full)
8 | 0.66 | 20.6 | 660 | 497 | > 10 |  | CCNC(=O)[C@H]1OC(n2cnc3c(N)nc(C#Cc4ccc(O)cc4)nc32)[C@H](O)[C@@H]1O (stereo not given in full)
9 | 1.18 | 187 | 1670 | > 10000 | > 10 |  | CCNC(=O)[C@H]1OC(n2cnc3c(N)nc(C#Cc4ccc(C(C)=O)cc4)nc32)[C@H](O)[C@@H]1O (stereo not given in full)
10 | 0.51 | 234 | 491 | 139 | 0.415 |  | CCNC(=O)[C@H]1OC(n2cnc3c(N)nc(C#Cc4cccnc4)nc32)[C@H](O)[C@@H]1O (stereo not given in full)
11 | 1.11 | 4.3 | 302 | 27.5 | 0.322 |  | CCNC(=O)[C@H]1OC(n2cnc3c(N)nc(C#CCN4CCCCC4)nc32)[C@H](O)[C@@H]1O (stereo not given in full)
12 | 0.46 | 113 | 4070 | 599 | > 10 |  | CCNC(=O)[C@H]1OC(n2cnc3c(N)nc(C#Cc4ccc(N)cc4)nc32)[C@H](O)[C@@H]1O (stereo not given in full)
13 | 1.82 | 21.5 | 1210 | 900 | > 10 |  | CCNC(=O)[C@H]1OC(n2cnc3c(N)nc(C#Cc4ccc([N+](=O)[O-])cc4)nc32)[C@H](O)[C@@H]1O (stereo not given in full)
14 | 0.28 | 27.4 | 531 | 90.5 | 0.358 |  | CCNC(=O)[C@H]1OC(n2cnc3c(N)nc(C#CCN4CCOCC4)nc32)[C@H](O)[C@@H]1O (stereo not given in full)
15 | 5.79 | 315 | 2990 | 2430 |  |  | CCNC(=O)[C@H]1OC(n2cnc3c(N)nc(C#Cc4ccc(C(F)(F)F)cc4)nc32)[C@H](O)[C@@H]1O (stereo not given in full)
16 | 1.63 | 19.5 |  | 597 | > 10 | 227 | CCNC(=O)[C@H]1OC(n2cnc3c(N)nc(C#Cc4cccs4)nc32)[C@H](O)[C@@H]1O (stereo not given in full)
17 | 2.15 | 52.4 | 3480 | 414 | > 10 |  | CCNC(=O)[C@H]1OC(n2cnc3c(N)nc(C#Cc4ccc(OC)cc4)nc32)[C@H](O)[C@@H]1O (stereo not given in full)
18 | 2.4 | 1.6 | 406 | 27.4 | 0.164 |  | CCNC(=O)[C@H]1OC(n2cnc3c(N)nc(C#CCc4ccccc4)nc32)[C@H](O)[C@@H]1O (stereo not given in full)
19 | 1.06 | 176 | 3570 | 1440 | > 10 |  | CCNC(=O)[C@H]1OC(n2cnc3c(N)nc(C#Cc4cccc(C=O)c4)nc32)[C@H](O)[C@@H]1O (stereo not given in full)
20 | 1.06 | 130 | > 10000 | 310 | > 10 |  | CCNC(=O)[C@H]1OC(n2cnc3c(N)nc(C#Cc4ccco4)nc32)[C@H](O)[C@@H]1O (stereo not given in full)
21 | 5.49 | 488 | 468 | 4460 | > 10 |  | CCNC(=O)[C@H]1OC(n2cnc3c(N)nc(C#Cc4cccc5ccccc45)nc32)[C@H](O)[C@@H]1O (stereo not given in full)
22 | 0.76 | 54.8 | 6520 | 1600 | > 10 |  | CCNC(=O)[C@H]1OC(n2cnc3c(N)nc(C#Cc4ccc(CC#N)cc4)nc32)[C@H](O)[C@@H]1O (stereo not given in full)
23 | 1.14 | 1160 | 1300 | 6860 | > 10 |  | CCNC(=O)[C@H]1OC(n2cnc3c(N)nc(C#Cc4ccccc4C=O)nc32)[C@H](O)[C@@H]1O (stereo not given in full)
24 | 2.28 | 743 | 1350 | > 10000 | > 10 |  | CCNC(=O)[C@H]1OC(n2cnc3c(N)nc(C#Cc4ccc(CCC(=O)OC(C)(C)C)cc4)nc32)[C@H](O)[C@@H]1O (stereo not given in full)
25 | 3.59 | 36.3 | 3290 | 500 | 8.53 |  | CCNC(=O)[C@H]1OC(n2cnc3c(N)nc(C#Cc4ccc(C)cc4)nc32)[C@H](O)[C@@H]1O (stereo not given in full)
26 | 2.33 | 81.4 | > 10000 | 3310 | > 10 |  | CCNC(=O)[C@H]1OC(n2cnc3c(N)nc(C#Cc4ccc(F)cc4)nc32)[C@H](O)[C@@H]1O (stereo not given in full)
27 | 0.32 | 1500 | 6420 | 7500 | > 10 |  | CCNC(=O)[C@H]1OC(n2cnc3c(N)nc(C#Cc4ccc(C(N)=O)cc4)nc32)[C@H](O)[C@@H]1O (stereo not given in full)
28 | 0.49 | 89.8 | 243 | 114 | 0.84 |  | CCNC(=O)[C@H]1OC(n2cnc3c(N)nc(C#Cc4ccccn4)nc32)[C@H](O)[C@@H]1O (stereo not given in full)
29 | 0.24 |  |  |  |  |  | CCNC(=O)[C@H]1O[C@@H](n2cnc3c(N)nc(NCCc4ccc(CCC(=O)O)cc4)nc32)[C@H](O)[C@@H]1O [CGS-21680]

Row | Structure (SMILES) | k' [1] | Ki (Adenosine receptor A2a [2]) [nM] | EC50 (Adenosine receptor A2a [3]) [nM] | Ki (Adenosine receptor A1 [4]) [nM] | EC50 (Adenosine receptor A1 [5]) [µM] | EC50 (Adenosine receptor A2a [6]) [nM]
30 | CCNC(=O)[C@H]1OC(n2cnc3c(N)nc(C#CCN4CCN(C)CC4)nc32)[C@H](O)[C@@H]1O (stereo not given in full) | 0.42 | 19.1 | 408 | 35.9 | 0.877 | 
31 | CCNC(=O)[C@H]1OC(n2cnc3c(N)nc(C#CCN4CCSCC4)nc32)[C@H](O)[C@@H]1O (stereo not given in full) | 0.66 | 5.9 | 223 | 52.8 | 0.306 | 
32 | CCNC(=O)[C@H]1OC(n2cnc3c(N)nc(C#Cc4ccc(CCC(=O)O)cc4)nc32)[C@H](O)[C@@H]1O (stereo not given in full) |  | > 1000 | 0.008 | > 1000 | > 10 | 
33 | CCNC(=O)[C@H]1OC(n2cnc3c(N)nc(C#Cc4nccs4)nc32)[C@H](O)[C@@H]1O (stereo not given in full) | 0.55 | 41.3 | 28.7 | 85.4 | 7.16 | 
34 | CCNC(=O)[C@H]1OC(n2cnc3c(N)nc(C#CCCc4ccccc4)nc32)[C@H](O)[C@@H]1O (stereo not given in full) | 3.16 | 7 | 210 | 448 | > 10 | 
35 | CCNC(=O)[C@H]1OC(n2cnc3c(N)nc(C#CCn4ccnc4)nc32)[C@H](O)[C@@H]1O (stereo not given in full) | 0.22 | 16.5 | 753 | 178 | 3.14 | 
36 | CCNC(=O)[C@H]1O[C@@H](n2cnc3c(N)ncnc32)[C@H](O)[C@@H]1O [NECA] | 0.19 |  |  |  |  | 
